Source: patent publication US10781226B2, “Photoactivatable cancer prodrug” (Texas State University, priority 2017, dated 2020)
Converted amounts (≈) assume the structure as drawn.

Assays:
[1] = tested on: A375, A431, A549, MRC-5 cells; test: Photocytotoxicity assay, summary across cell lines; type: cell-based
[2] = Solubility in demineralized water; type: physicochemical; details: read-out: maximum solubility
tubulin = details: polymerization enhancer control
From the text: Raw fluorescence was normalized by initial fluorescence for each sample. Samples consists of the caged drug (not irradiated), the caged drug irradiated with green light, and the caged drug irradiated with blue light.
In this assay, increased fluorescence indicates tubulin polymerization.

## [NH2][Pt]([NH2])([Cl])[Cl] [CDDP, cisplatin]
[1]; range across all tested cell lines
  EC50: 850 to 3060 nM

## CSCCCc1nc(=O)c2c(-c3ccccc3)c(C(=O)c3ccccc3)[nH]c2[nH]1 [compound 1]
[2]
  solubility: 10 µM (≈ 4.04 µg/mL)

## CC(=O)O[C@H]1C(=O)[C@@]2(C)[C@H]([C@H](OC(=O)c3ccccc3)[C@]3(O)C[C@H](OC(=O)[C@H](O)[C@@H](NC(=O)c4ccccc4)c4ccccc4)C(C)=C1C3(C)C)[C@]1(OC(C)=O)CO[C@@H]1C[C@@H]2O [paclitaxel, reference compound]
tubulin
  tubulin polymerization: induces rapid polymerization of tubulin

## F[P-](F)(F)(F)(F)F.F[P-](F)(F)(F)(F)F.O.[Ru+2].c1ccc(-c2cccc(-c3ccccn3)n2)nc1.c1ccc(-c2ccccn2)nc1 [[3](PF6)2]
[1]; all tested cell lines
  activity across all tested cell lines: no activity
